Results taken from patent US10092643B2, “Prophylactic and immunomodulatory compositions and uses” (Kherion Technology Limited, priority 2005, dated 2018).

Key:
[1] = system: Mycobacterium tuberculosis; conditions: MTB-infected mice, intravenously injected; cited from earlier work
Mtb specific T cells = experiment: expansion of Mtb specific T cells after S1P administration to TB-infected macrophages; assay type: cell-based; conditions: S1P administered to TB-infected macrophages
[2] = system: Mycobacterium tuberculosis; conditions: human macrophages; concentration close to physiologic ones; cited from earlier work
[3] = system: macrophages and epithelial cells; experiment: S1P given before infection: control of infection by macrophages and epithelial cells; assay type: cell-based; conditions: S1P administered before infection
[4] = system: macrophagic phospholipase D (PLD); conditions: cited from earlier work
T cells = conditions: Jin et al., Blood 2003; cited from earlier work
Mtb-infected macrophages = conditions: cited from earlier work
M. tuberculosis (Erdman) = experiment: S1P as adjuvant for BCG vaccine in mice (immunogenicity and protection protocol); conditions: protocol to be followed
dendritic cells = conditions: administered to dendritic cells in vitro; cited from earlier work
[5] = safety of S1P administration in mice; conditions: levels at which immunoregulatory activity can be measured

## CCCCCCCCCCCCC/C=C/C(O)C(N)COP(=O)(O)O [S1P, D-erythro-sphingosine 1-phosphate]
[1]
  mycobacterial growth: significantly reduced
  pulmonary tissue damage: significantly reduced
Mtb specific T cells
  expansion of Mtb specific T cells: induces expansion of Mtb specific T cells
[2]
  antimicrobial activity / intracellular killing of TB: induce antimicrobial activity in human macrophages leading to the intracellular killing of TB
[3]
  capacity to control an infection: increases the capacity of macrophages and epithelial cells to control an infection
[4]
  PLD activity in macrophages: increase PLD activity in macrophages
T cells
  activation and proliferation of T cells: inhibit activation and proliferation of T cells
Mtb-infected macrophages
  phagolysosomal fusion: promote phagolysosomal fusion
M. tuberculosis (Erdman)
  properties as a vaccine adjuvant: novel, unexpected and advantageous properties as a vaccine adjuvant
Dendritic cells
  secretion of cytokine profiles (Th1/Th2 responses): alter the secretion of cytokine profiles
[5]
  safety: appears safe
